# Reference: US20090281054A1, “COMPOSITIONS AND METHODS COMPRISING CAPURAMYCIN ANALOGUES” (priority 2008, published 2009)
# “And” between values parts separate entries of the source, which are not always exact repeats. Identical values can stand only once. Like-named read-outs stand apart in the source and are kept apart here.
# Tests used:
# [1] = system: M. smegmatis (MSMG; MC2155); test: MIC by microdilution method in 7H9 broth; type: cell-based; conditions: MSMG MC^2155, 72 hr
# [2] = system: M. abscessus (MAB; ATCC 700869); test: MIC by microdilution method in 7H9 broth; type: cell-based; conditions: MAB 700869
# [3] = system: M. kansaii (MKN; ATCC12478 & 35775); test: MIC by microdilution method in 7H9 broth; type: cell-based, M. kansasii
# M. avium complex (MAC) = test: MIC by microdilution method in 7H9 broth; type: cell-based; conditions: for MIC90: value in square brackets
# M. abscessus = test: Synergy by checkerboard titration (microdilution); type: cell-based
# M. smegmatis = test: Synergy by checkerboard titration (microdilution); type: cell-based; conditions: M. smegmatis; for MIC: Mycolicibacterium smegmatis, drug alone
# [4] = system: intracellular MTB (MTBp-SMT1) in J774A.1 macrophages; test: Intracellular activity of SQ641-TPGS micelles; type: cell-based, Mycobacterium tuberculosis
# translocase I = translocase I (Escherichia coli, UniProt P0A6W3); test: IC50 against translocase I; type: biochemical
# [5] = system: MTB-pSMT1 luciferase reporter strain; test: Activity against slowly replicating (hypoxic) MTB; type: cell-based; conditions: Mycobacterium tuberculosis
# MTB in J774 cells = test: Intracellular activity of amino acid conjugates; type: cell-based, Mycobacterium tuberculosis; conditions: day 0 RLU 775, Control day 7 31700
# Experimental: The amino acid conjugates were tested at concentrations of 4 mg/mL and 8 mg/mL compared with a control and isoniazid (INH).
# The intracellular activity against MTB by capuramycin amino acid derivatives was tested. Cells J774 were infected with MTB and treated for 7 days with the amino acid derivative. The mean Relative Light Unites (RLU), an estimation of bacterial viability, was measured as described in Snewin et al., Infect. Immun., 1999, 67(9), 4586-4593).
# MTB in macrophages = type: cell-based, Mycobacterium tuberculosis
# MTB = type: in vivo, mouse; conditions: IP, 250 mg/kg, 2 weeks treatment
# [6] = Mycolicibacterium smegmatis, MC2155|MC^2155, read-out: MIC
# [7] = Mycobacteroides abscessus, ATCC700869, read-out: MIC
# [8] = Mycobacterium avium, 336 h, MAC isolates, 2 wk, read-out: MIC (range)
# [9] = Mycobacterium avium, MAC isolates, read-out: MIC90
# [10] = Mycobacterium kansasii, ATCC 12478 / ATCC 35775, MKN ATCC35775, read-out: MIC
# [11] = Mycobacterium kansasii, MKN ATCC12478, read-out: MIC
# translocase I, sequence (P0A6W3 whole entry): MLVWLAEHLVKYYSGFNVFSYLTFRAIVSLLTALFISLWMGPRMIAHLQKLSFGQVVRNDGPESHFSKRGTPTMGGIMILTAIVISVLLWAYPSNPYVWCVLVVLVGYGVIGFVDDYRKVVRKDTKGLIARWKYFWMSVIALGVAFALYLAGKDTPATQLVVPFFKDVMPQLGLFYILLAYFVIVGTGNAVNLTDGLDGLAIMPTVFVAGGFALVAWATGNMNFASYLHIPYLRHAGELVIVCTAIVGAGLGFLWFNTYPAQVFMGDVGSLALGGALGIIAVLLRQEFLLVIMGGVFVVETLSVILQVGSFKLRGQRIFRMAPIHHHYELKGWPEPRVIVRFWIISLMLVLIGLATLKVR
compound,measurement,setting,value
"CO[C@H]1/C=C/O[C@@]2(C)Oc3c(C)c(O)c4c(c3C2=O)C2=NC3(CCN(CC(C)C)CC3)NC2=C(NC(=O)/C(C)=C\C=C\[C@H](C)[C@H](O)[C@@H](C)[C@@H](O)[C@@H](C)[C@H](OC(C)=O)[C@@H]1C)C4=O [RFB, reference compound]",MIC,[1],0.25 µg/mL
same,MIC,[2],2 µg/mL
same,MIC,[3]; MKN ATCC12478,≦0.0039 μg/ml
same,MIC,[3]; MKN ATCC35775,≦0.031 μg/ml
same,MIC range,"M. avium complex (MAC); MAC isolates, 2 wk",0.0078 to 0.125 µg/mL
same,MIC90,M. avium complex (MAC); MAC isolates,0.062 µg/mL
same,MIC Combination,M. abscessus; combination SQ641 + RFB,0.25 µg/mL
same,MIC Alone,M. abscessus; drug alone,2.0 µg/mL
"CO[C@H]1/C=C/O[C@@]2(C)Oc3c(C)c(O)c4c(O)c(c(/C=N/N5CCN(C)CC5)c(O)c4c3C2=O)NC(=O)/C(C)=C\C=C\[C@H](C)[C@H](O)[C@@H](C)[C@@H](O)[C@@H](C)[C@H](OC(C)=O)[C@@H]1C [RIF, rifampicin, reference compound]",MIC,[1]; [6],8 µg/mL
same,MIC,[2]; [7],> 32 µg/mL
same,MIC,"[3]; Mycobacterium kansasii, ATCC12478",0.125 µg/mL
same,MIC,"[3]; Mycobacterium kansasii, ATCC 12478 / ATCC 35775",0.125 µg/mL
same,MIC,M. avium complex (MAC); [8],0.062 to 4 µg/mL
same,MIC90,M. avium complex (MAC); [9],1 µg/mL
same,MIC Combination,M. smegmatis; combination SQ641 + RIF,2.0 µg/mL
same,MIC,M. smegmatis,8 µg/mL
same,Mean RLU at Day 7,[4],22 RLU
CO[C@H]1[C@@H](O)[C@H](n2ccc(=O)[nH]c2=O)O[C@@H]1[C@@H](O[C@H]1OC(C(=O)Nc2ccc(Br)c(C)c2)=C[C@H](O)[C@@H]1O)C(N)=O [RKS2244],IC50,translocase I,12.4 nM
same,MIC,[1]; [6],1 µg/mL
same,MIC,[2]; [7],4 µg/mL
same,MIC,[3]; [10],2 µg/mL
same,MIC,[3]; [11],> 32 µg/mL
same,MIC,M. avium complex (MAC); [8],0.5 to 8 µg/mL
same,MIC,"M. avium complex (MAC); Mycobacterium avium, MAC strain 100, read-out: MIC",0.5 µg/mL
same,MIC,"M. avium complex (MAC); Mycobacterium avium, MAC strain 101, read-out: MIC",0.25 µg/mL
same,MIC,"M. avium complex (MAC); Mycobacterium avium, MAC strain 104, read-out: MIC",0.25 µg/mL
same,MIC,"M. avium complex (MAC); Mycobacterium avium, MAC strain 109, read-out: MIC",0.25 µg/mL
same,MIC,"M. avium complex (MAC); Mycobacterium avium, MAC strain A5, read-out: MIC",0.25 µg/mL
same,MIC,"M. avium complex (MAC); Mycobacterium avium, MAC strain JSH1, read-out: MIC",0.5 µg/mL
same,MIC,"M. avium complex (MAC); Mycobacterium avium, MAC strain NIH C1-1, read-out: MIC",4 µg/mL
same,MIC,"M. avium complex (MAC); Mycobacterium avium, MAC strain NIH C1-2, read-out: MIC",0.5 µg/mL
same,MIC,"M. avium complex (MAC); Mycobacterium avium, MAC strain NIH C1-3, read-out: MIC",8 µg/mL
same,MIC,"M. avium complex (MAC); Mycobacterium avium, MAC strain NIH C1-4, read-out: MIC",1 µg/mL
same,MIC90,M. avium complex (MAC); [9],4 µg/mL
same,MIC range,M. avium complex (MAC); ten MAC isolates (Table 6),0.25 to 8 µg/mL
"[H]/N=C(/N)N[C@H]1[C@H](O)[C@@H](O)[C@H](O[C@@H]2O[C@@H](C)[C@](O)(C=O)[C@H]2O[C@@H]2O[C@@H](CO)[C@H](O)[C@@H](O)[C@@H]2NC)[C@@H](N/C(N)=N\[H])[C@@H]1O [SM, streptomycin, reference compound]",MIC,[1]; [6],0.5 µg/mL
same,MIC,[2]; [7],8 µg/mL
same,MIC,[3]; [10],2 µg/mL
same,MIC,[3]; [11],> 32 µg/mL
same,MIC,"M. abscessus; Mycobacteroides abscessus, drug alone",8 µg/mL
same,MIC Combination,M. abscessus; combination SQ641 + SM,2.0 µg/mL
same,MIC Combination,M. smegmatis; combination SQ641 + SM,0.25 µg/mL
same,MIC,M. smegmatis,0.5 µg/mL
same,MIC,[5],0.25 µg/mL
same,MIC,"[5]; Hypoxic, […]",1 µg/mL
CCCCCCCCCC(=O)O[C@@H]1[C@H](OC)[C@@H]([C@@H](OC2OC(C(=O)N[C@H]3CCC[C@@H](C)NC3=O)=C[C@H](OC(=O)CCOCCOCCOCCOCCN)[C@@H]2OC(=O)CCOCCOCCOCCOCCN)C(N)=O)O[C@H]1n1ccc(=O)[nH]c1=O (stereo partly shown) [SQ641-2topdec],Mean RLU on day 7,MTB in J774 cells; 4 μg/ml,4354 RLU
same,Mean RLU on day 7,MTB in J774 cells; 8 μg/ml,2903 RLU
CCCCCCCCCC(=O)O[C@@H]1[C@H](OC)[C@@H]([C@@H](OC2OC(C(=O)N[C@H]3CCC[C@@H](C)NC3=O)=C[C@H](OC(=O)CCCCCCCCCCN)[C@@H]2O)C(N)=O)O[C@H]1n1ccc(=O)[nH]c1=O (stereo partly shown) [SQ641-aua],Mean RLU on day 7,MTB in J774 cells; 4 μg/ml,3163 RLU
same,Mean RLU on day 7,MTB in J774 cells; 8 μg/ml,372 RLU
CCCCCCCCCC(=O)O[C@@H]1[C@H](OC)[C@@H]([C@@H](OC2OC(C(=O)N[C@H]3CCC[C@@H](C)NC3=O)=C[C@H](OC(=O)CCOCCOCCOCCOCCN)[C@@H]2O)C(N)=O)O[C@H]1n1ccc(=O)[nH]c1=O (stereo partly shown) [SQ641-topdec],Mean RLU on day 7,MTB in J774 cells; 4 μg/ml,3368 RLU
same,Mean RLU on day 7,MTB in J774 cells; 8 μg/ml,2143 RLU
D-alpha-tocopheryl poly(ethylene glycol) 1000 succinate [TPGS],Effect of TPGS alone on MTB growth in macrophages,MTB in macrophages,increased MTB growth
same,Mean RLU on day 7,MTB in macrophages,13903 RLU and 14595 RLU and 13942 RLU
same,Lung CFU ± SD,MTB; Control 3.8 ± 1.9 × 10^8,3.0 ± 1.3 × 10^8 CFU
same,Lung Log CFU,MTB; Control 8.58,8.48 Log CFU
